Data set [1] is described as follows: Cytotoxicity against rat PC12 cells assessed as reduction in cell viability at 100 uM incubated for 24 hrs by MTT assay. The class given is cell-based. The settings on record: pc-12, 24 h. On the technique in general: Tetrazolium dyes change colour on reduction, which living cells bring about.
Data set [2] can be described thus: Cytotoxicity against human L02 cells assessed as reduction in cell viability at 100 uM incubated for 24 hrs by MTT assay. The class given is cell-based. The note with it: l02, 24 h.
Data set [3] is described as follows: Cytotoxicity against rat PC12 cells assessed as reduction in cell viability at 20 uM incubated for 24 hrs by MTT assay. The class given is cell-based. The settings on record: pc-12, 24 h.
Data set [4] has as its system PC-12. In words: Cytoprotection activity against H2O2-induced cytotoxicity in rat PC12 cells assessed as cell viability at 20 uM pre-incubated for 24 hrs before H2O2 exposure for 12 hrs by MTT assay. Format: functional, cell-based.
In data set [5] the test system is PC-12. As to the kind of experiment: Cytoprotection activity against 6-OHDA-induced cytotoxicity in rat PC12 cells assessed as cell viability at 20 uM pre-incubated for 24 hrs before 6-OHDA exposure for 12 hrs by MTT assay. Format: functional, cell-based.
The nature of data set [6]: Cytotoxicity against rat PC12 cells assessed as reduction in cell viability at 20 uM to 100 uM incubated for 24 hrs by MTT assay. The settings on record: pc-12, 24 h. The class given is cell-based.
Data set [7] in a line: Cytotoxicity against human L02 cells assessed as reduction in cell viability at 20 uM to 100 uM incubated for 24 hrs by MTT assay. Format: cell-based. The note with it: l02, 24 h.
Data set [8] in a line: Antioxidant activity assessed as DPPH radical scavenging activity at 20 uM incubated for 30 mins by spectrophotometry. Format: physicochemical. The settings on record: 0.5 h. On the technique in general: DPPH is a stable violet radical that fades when it is reduced.
The nature of data set [9]: Antioxidant activity assessed as ABTS radical scavenging activity at 20 uM incubated for 30 mins by spectrophotometry. The class given is physicochemical. The note with it: 0.5 h.

This passage reports Activity results from ChEMBL document CHEMBL3580644, “Synthesis of piperlongumine analogues and discovery of nuclear factor erythroid 2-related factor 2 (Nrf2) activators as potential neuroprotective agents” (J Med Chem, 2015).

Active and inactive are the calls of the source. The rule behind the calls is not given here.

As for `O=C(/C=C/c1ccc(C(F)(F)F)cc1)N1CCCCC1=O`, the Activity entry is “Toxic” in [1], “Toxic” in data set [2] and “Non-toxic” in [3]. For the same molecule, the outcome in data set [4] and in data set [5] was Active.
Regarding `COc1cc(/C=C/C(=O)N2CCC=CC2=O)cc(OC)c1OC` [PIPLARTINE], the Activity result in data set [6], in data set [7] and in data set [3] was “Toxic” each time.
In the case of `O=C(/C=C/c1ccc([N+](=O)[O-])cc1)N1CCCCC1=O`, the figures for the Activity entry in [1], in data set [2] and in data set [3] were “Toxic”, “Toxic” and “Non-toxic”, respectively. For the same molecule, the result in [4] and in data set [5] was Active.
Regarding `O=C(/C=C/c1ccc(Br)cc1)N1CCCC1=O`, the values for the Activity entry in data set [1], in [2] and in data set [3] were “Toxic”, “Toxic” and “Non-toxic”, respectively. For the same molecule, the result in [4] and in data set [5] was Active.
In the case of `O=C(/C=C/c1ccc(C(F)(F)F)cc1)N1CCCCCC1=O`, the Activity entry in [1] is “Toxic”; in [2] it was “Toxic”; in [3], “Non-toxic”. The result in data set [4] and in [5] was Active.
`O=C(/C=C/c1ccccc1)N1CCCCC1=O`: the Activity result was “Toxic” in [1], “Toxic” in [2] and “Non-toxic” in data set [3]. Moreover, the outcome in data set [4] and in [5] was Active.
For `O=C(/C=C/c1ccc(Br)cc1)N1CCCCC1=O`, the Activity entry in [1] is recorded as “Toxic”; in data set [2] it was “Toxic”; in data set [3], “Non-toxic”. The outcome in [4] and in data set [5] was Active.
With `O=C(/C=C/c1ccc(C(F)(F)F)cc1)N1CCCC1=O`, the Activity entry is reported as “Toxic” in data set [1], “Toxic” in data set [2] and “Non-toxic” in [3]. Moreover, the outcome in data set [4] and in data set [5] was Active.
In the case of `O=C(/C=C/c1ccccc1)N1CCCC1=O`, the results for the Activity entry in data set [1], in data set [2] and in [3] were “Toxic”, “Toxic” and “Non-toxic”, respectively. The outcome in data set [4] and in data set [5] was Active.
As to `O=C(/C=C/c1ccc(O)cc1)N1CCCC1=O`, the Activity result in [6] was “Non-toxic”; in data set [7], “Non-toxic”; in data set [3], “Non-toxic”; in [8] it was “Active”; in data set [9], “Active”. Also, the result in data set [4] and in data set [5] was Active.
Turning to `COc1ccc(/C=C/C(=O)N2CCCCC2=O)cc1`, the Activity result in [6], in [7] and in data set [3] was “Non-toxic” throughout. In addition, the outcome in data set [4] and in data set [5] was Active.
Regarding `COc1cc(/C=C/C(=O)N2CCCC2=O)cc(OC)c1OC`, the Activity result in data set [6], in data set [7] and in data set [3] was “Non-toxic” throughout. Besides, the result in data set [4] and in data set [5] was Active.
As for `COc1cc(CCC(=O)N2CCCCC2=O)cc(OC)c1OC` [TETRAHYDROPIPLARTINE], the Activity result in data set [6], in data set [7] and in [3] was “Non-toxic” each time. Moreover, the result in data set [4] and in [5] was inactive.
Consider `O=C(/C=C/c1ccc([N+](=O)[O-])cc1)N1CCCCCC1=O`, for which the values for the Activity result in [1], in data set [2] and in data set [3] were “Toxic”, “Toxic” and “Non-toxic”, respectively. In addition, the outcome in [4] and in data set [5] was Active.
Take `COc1ccc(/C=C/C(=O)N2CCCC2=O)cc1OC`: the Activity entry in data set [6], in data set [7] and in [3] was “Non-toxic” in each case. For the same molecule, the outcome in data set [4] and in data set [5] was Active.
Regarding `O=C(/C=C/c1ccccc1)N1CCCCCC1=O`, the results for the Activity result in data set [1], in data set [2] and in data set [3] were “Toxic”, “Toxic” and “Non-toxic”, respectively. Also, the result in [4] and in [5] was Active.
On to `COc1cc(/C=C/C(=O)N2CCCCCC2=O)cc(OC)c1OC`, for which the Activity entry in data set [6], in [7] and in data set [3] was “Non-toxic” each time. In addition, the result in data set [4] and in data set [5] was Active.
